According to PMC4699860 (Biophysical Journal, 2015):

Molecular target: K-Ras4B1-166-GDP (Homo sapiens, UniProt P01116)
Experiment: Microscale thermophoresis
Format: binding
Conditions: MST; nucleotide state not given; pH 7.0, 0.05% TWEEN-20

Ac-KEKLNSKPGKKKKKKSKTK-NH2 [kR-4B-28]
interaction with K-Ras4B1-166 (in words): abolished the interaction
